Measured values from ChEMBL document CHEMBL1134160 (Bioorg Med Chem Lett, 2001).

What was measured:
[1] = biological target: T1, Acetylcholine receptor; alpha1/beta1/delta/gamma (Homo sapiens, UniProt P02708+P07510+P11230+Q07001); experiment: In vitro Binding affinity towards alpha-1-beta-1-gamma-delta nAChR was determined; assay type: protein-complex assay
[2] = biological target: Neuronal acetylcholine receptor; alpha4/beta2 (Homo sapiens, UniProt P17787+P43681); experiment: In vitro Binding affinity towards Nicotinic acetylcholine receptor alpha4-beta2 was determined; assay type: protein-complex assay
Chain of Neuronal acetylcholine receptor; alpha4/beta2 (P17787 whole entry): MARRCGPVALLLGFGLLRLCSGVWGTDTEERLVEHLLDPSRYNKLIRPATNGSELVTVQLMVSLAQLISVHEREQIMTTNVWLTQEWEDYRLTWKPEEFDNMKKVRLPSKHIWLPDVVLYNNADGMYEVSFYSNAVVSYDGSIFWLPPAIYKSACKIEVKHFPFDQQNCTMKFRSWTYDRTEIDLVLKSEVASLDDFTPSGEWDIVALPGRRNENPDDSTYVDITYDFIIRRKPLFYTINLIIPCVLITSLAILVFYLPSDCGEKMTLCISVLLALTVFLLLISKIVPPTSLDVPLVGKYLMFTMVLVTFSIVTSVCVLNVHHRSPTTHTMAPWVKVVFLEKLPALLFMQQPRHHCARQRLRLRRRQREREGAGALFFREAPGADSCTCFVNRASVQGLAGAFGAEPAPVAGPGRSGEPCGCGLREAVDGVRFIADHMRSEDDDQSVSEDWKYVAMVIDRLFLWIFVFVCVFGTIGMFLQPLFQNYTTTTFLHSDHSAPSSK
Chain of Neuronal acetylcholine receptor; alpha4/beta2 (P43681 whole entry): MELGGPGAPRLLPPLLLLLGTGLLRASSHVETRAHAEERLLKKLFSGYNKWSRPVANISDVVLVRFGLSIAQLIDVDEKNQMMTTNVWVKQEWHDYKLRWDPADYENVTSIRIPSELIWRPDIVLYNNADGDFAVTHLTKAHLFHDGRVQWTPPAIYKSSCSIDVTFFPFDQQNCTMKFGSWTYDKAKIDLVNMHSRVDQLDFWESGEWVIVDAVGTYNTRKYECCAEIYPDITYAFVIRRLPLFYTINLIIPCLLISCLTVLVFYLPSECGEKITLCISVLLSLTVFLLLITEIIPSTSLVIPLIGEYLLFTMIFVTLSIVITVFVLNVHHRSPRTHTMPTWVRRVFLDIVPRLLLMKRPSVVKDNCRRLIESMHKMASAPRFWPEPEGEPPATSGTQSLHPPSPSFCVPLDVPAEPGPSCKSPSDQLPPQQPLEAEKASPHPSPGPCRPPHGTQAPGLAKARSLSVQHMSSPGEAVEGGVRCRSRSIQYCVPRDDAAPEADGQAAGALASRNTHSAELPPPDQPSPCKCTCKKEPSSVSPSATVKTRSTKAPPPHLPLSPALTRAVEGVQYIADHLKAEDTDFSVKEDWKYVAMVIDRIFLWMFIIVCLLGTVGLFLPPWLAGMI

[3] = biological target: Neuronal acetylcholine receptor subunit alpha-7 (Mus musculus) (UniProt P49582); experiment: Functional activity is expressed as percent efficacy for alpha-7 nAChR.
Chain of Neuronal acetylcholine receptor subunit alpha-7 (Mus musculus) (P49582 whole entry): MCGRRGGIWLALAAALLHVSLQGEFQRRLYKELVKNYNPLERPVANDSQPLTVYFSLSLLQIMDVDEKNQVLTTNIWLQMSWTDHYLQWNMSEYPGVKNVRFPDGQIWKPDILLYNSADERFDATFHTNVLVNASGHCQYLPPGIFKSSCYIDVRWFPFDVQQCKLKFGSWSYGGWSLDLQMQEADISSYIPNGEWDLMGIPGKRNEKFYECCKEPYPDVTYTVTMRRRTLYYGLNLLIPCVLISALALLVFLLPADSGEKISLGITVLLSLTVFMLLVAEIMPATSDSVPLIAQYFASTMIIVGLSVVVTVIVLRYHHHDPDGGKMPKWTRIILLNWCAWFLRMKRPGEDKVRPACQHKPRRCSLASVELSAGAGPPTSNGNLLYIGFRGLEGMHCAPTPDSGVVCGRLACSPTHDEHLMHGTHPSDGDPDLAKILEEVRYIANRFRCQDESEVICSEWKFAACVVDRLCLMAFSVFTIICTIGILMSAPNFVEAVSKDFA

[4] = biological target: Neuronal acetylcholine receptor subunit alpha-7 (Mus musculus, UniProt P49582); experiment: In vitro Binding affinity towards alpha-7 nAChR was determined
Chain of Neuronal acetylcholine receptor subunit alpha-7 (Mus musculus, UniProt P49582) (P49582 whole entry): as above

[5] = biological target: Serotonin 3 (5-HT3) receptor; experiment: In vitro Binding affinity towards 5-hydroxytryptamine 3 receptor was determined; assay type: protein-complex assay
[6] = biological target: Neuronal acetylcholine receptor subunit alpha-7 (Homo sapiens, UniProt P36544); experiment: Effective concentration that causes inhibition of alpha-7 nAChR, was determined. Values are expressed as EC50 +/- SEM.; assay type: functional
Chain of Neuronal acetylcholine receptor subunit alpha-7 (Homo sapiens, UniProt P36544) (P36544 whole entry): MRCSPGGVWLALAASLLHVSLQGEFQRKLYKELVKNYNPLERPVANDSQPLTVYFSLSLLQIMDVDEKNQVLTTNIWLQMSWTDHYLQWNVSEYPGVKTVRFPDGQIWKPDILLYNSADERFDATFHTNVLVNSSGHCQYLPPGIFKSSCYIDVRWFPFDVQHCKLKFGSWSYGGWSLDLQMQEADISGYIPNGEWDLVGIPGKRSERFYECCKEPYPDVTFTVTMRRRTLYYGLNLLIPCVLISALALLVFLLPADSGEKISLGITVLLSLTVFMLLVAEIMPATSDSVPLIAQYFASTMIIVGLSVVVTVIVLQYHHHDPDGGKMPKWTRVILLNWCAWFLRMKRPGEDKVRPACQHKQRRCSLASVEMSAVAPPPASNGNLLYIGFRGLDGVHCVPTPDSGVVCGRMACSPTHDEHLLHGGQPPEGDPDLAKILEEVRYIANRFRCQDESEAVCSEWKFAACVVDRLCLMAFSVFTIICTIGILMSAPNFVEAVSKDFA

[7] = biological target: T1, Acetylcholine receptor; alpha1/beta1/delta/gamma; experiment: In vitro Binding affinity towards alpha-1-beta-1-gamma delta nAChR was determined

T1 sequence (P02708 whole entry): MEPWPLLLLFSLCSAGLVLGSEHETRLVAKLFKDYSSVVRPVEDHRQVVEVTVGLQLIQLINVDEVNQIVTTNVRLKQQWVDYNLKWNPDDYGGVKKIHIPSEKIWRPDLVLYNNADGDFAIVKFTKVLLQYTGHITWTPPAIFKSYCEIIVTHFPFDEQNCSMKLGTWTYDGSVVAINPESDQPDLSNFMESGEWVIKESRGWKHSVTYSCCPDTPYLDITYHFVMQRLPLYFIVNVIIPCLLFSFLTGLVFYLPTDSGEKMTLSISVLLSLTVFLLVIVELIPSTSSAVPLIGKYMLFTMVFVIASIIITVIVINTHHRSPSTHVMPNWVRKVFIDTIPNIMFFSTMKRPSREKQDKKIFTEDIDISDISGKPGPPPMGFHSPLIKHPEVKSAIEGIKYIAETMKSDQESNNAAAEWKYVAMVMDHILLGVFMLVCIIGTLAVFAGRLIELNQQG
T1 sequence (P07510 whole entry): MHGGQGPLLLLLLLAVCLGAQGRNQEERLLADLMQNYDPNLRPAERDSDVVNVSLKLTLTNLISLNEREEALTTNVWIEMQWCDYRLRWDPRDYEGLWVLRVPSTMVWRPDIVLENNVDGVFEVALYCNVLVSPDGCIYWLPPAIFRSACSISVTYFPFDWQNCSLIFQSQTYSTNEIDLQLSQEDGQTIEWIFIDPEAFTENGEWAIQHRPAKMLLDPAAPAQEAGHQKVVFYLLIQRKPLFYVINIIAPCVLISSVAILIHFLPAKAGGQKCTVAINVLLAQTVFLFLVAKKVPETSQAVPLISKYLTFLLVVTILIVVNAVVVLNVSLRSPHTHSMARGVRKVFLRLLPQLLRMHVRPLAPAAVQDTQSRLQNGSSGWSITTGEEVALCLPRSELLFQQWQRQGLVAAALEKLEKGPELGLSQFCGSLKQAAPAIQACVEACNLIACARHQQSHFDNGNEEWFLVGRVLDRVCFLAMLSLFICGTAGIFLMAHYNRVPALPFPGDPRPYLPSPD
T1 sequence (P11230 whole entry): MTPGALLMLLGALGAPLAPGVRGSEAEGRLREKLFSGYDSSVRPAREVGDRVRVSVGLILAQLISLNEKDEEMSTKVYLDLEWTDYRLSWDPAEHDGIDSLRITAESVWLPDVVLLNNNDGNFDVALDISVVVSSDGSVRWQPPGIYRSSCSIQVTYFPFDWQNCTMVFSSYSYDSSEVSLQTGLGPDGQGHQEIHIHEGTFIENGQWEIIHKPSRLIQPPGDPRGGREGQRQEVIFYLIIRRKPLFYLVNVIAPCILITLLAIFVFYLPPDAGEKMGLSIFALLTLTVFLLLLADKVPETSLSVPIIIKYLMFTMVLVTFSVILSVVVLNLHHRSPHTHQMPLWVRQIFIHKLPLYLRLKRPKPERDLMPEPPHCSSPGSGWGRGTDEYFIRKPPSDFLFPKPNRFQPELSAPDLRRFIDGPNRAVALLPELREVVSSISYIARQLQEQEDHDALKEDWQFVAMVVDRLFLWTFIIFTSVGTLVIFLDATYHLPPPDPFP
T1 sequence (Q07001 whole entry): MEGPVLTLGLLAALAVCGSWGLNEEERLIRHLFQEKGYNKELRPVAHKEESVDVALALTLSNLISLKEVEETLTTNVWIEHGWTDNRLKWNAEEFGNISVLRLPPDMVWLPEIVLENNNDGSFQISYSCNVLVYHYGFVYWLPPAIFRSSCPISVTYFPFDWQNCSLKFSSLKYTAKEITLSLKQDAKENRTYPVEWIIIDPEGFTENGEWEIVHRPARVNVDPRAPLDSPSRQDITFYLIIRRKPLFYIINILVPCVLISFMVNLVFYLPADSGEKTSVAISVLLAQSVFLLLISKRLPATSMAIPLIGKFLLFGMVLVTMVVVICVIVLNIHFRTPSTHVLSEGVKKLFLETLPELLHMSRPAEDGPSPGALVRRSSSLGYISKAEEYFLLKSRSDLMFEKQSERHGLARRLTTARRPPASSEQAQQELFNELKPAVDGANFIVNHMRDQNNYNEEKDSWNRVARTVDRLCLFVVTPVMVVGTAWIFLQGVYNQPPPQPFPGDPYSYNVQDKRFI

## CN1[C@@H]2CC[C@H]1C[C@@H](OC(=O)c1c[nH]c3ccccc13)C2 [TROPISETRON]
[1]
  Ki: 27 µM
[2]
  Ki: 55 µM

## O=C(OC1CN2CCC1CC2)n1ccc2ccccc21 (configuration not stated)
[3]
  Efficacy: 17%
[4]
  Ki: 0.0088 µM
[5]
  Ki: 0.01 µM
[6]
  EC50: 4.8 µM
[2]
  Ki: 14 µM

## CN1CCC[C@H]1c1cccnc1 [NICOTINE]
[3]
  Efficacy: 53%
[4]
  Ki: 0.48 µM
[7]
  Ki: 5.5 µM
[5]
  Ki: 71 µM

## C[N+]1(C)C2CCC1CC(OC(=O)c1c[nH]c3ccccc13)C2 (configuration not stated)
[3]
  Efficacy: 13%
[4]
  Ki: 0.0064 µM
[1]
  Ki: 3 µM
[5]
  Ki: 0.0072 µM
[6]
  EC50: 0.28 µM
[2]
  Ki: 7.8 µM

## CN1C2CCCC1CC(NC(=O)c1nn(C)c3ccccc13)C2 (configuration not stated) [GRANISETRON]
[4]
  Ki: > 10 µM
[2]
  Ki: 38 µM

## Cc1nccn1CC1CCc2c(c3ccccc3n2C)C1=O (configuration not stated) [ONDANSETRON]
[4]
  Ki: > 3 µM
[2]
  Ki: 46 µM

## CC(=O)OCC[N+](C)(C)C
[3]
  Efficacy: 100%
